Patent US20250360113A1, “ADMINISTRATION OF DHB TO INCREASE BENEFIT OF LOSING WEIGHT OF INTERMITTENT FASTING” (NANJING NUTRABUILDING BIO-TECH CO., LTD., priority 2023, published 2025)

Columns and labels:
[1] = in vitro; cited from earlier work
[2] = Oral glucose tolerance test (OGTT); assay type: in vivo, C57BL/6 male mice; details: HFD obese mice
Description: 50 C57BL/6 male mice aged about 8 weeks, are randomly assigned to five study groups (GA, GB1, GB2, GB3, GB4) of ten mice each (one cage, n=5 per condition). Mice were maintained in a pathogen free condition under a strict 12 h light/dark cycle (0600/1800 h) with 12-15 cycles/hour of air change. Mice were provided with access to respective feed and water ad libitum as per experimental conditions. Mice were housed under controlled laboratory conditions of temperature and humidity at 23±2° C. and 50±10% RH, respectively. Each study group consisted of ten animals, and treatment details of the individual study groups are given below: • Group A (GA, NC): Normal mice, maintained on normal diet (standard chow, 12% calories from fat; 23% calories from protein and 65% calories from carbohydrates) for 8 weeks, receiving neither EODF nor DHB treatment. • Group B1 (GB1): Obese mice, maintained on high fat diet (HFD, 60% calories from fat, 20% calories from protein, 20% calories from carbohydrate) for 8 weeks, receiving neither EODF nor DHB treatment. • Group B2 (GB2): Obese mice, maintained on HFD for 8 weeks, receiving only EODF and no DHB treatment. • Group B3 (GB3): Obese mice, maintained on HFD for 8 weeks, receiving only DHB treatment and no EODF. • Group B4 (GB4): Obese mice, maintained on HFD for 8 weeks, receiving DHB treatment and EODF combination. DHB was administered daily via intragastric injection (i.g.) according to a level of 70 mg/kg body weight. Mice not receiving DHB were given orally with ultrapure water. Oral glucose tolerance test (OGTT): To measure glucose levels in blood, GTT were implemented in the mice (NC and HFD groups) after overnight by using a glucose analyzer. The glucose concentrations were measured in blood collected by venous bleeding from the tail vein immediately at 0, 15, 30, 60 and 120 min after administered glucose at 2 g/kg orally. Towards the end of the final week of the study, GTT was also performed for all mice (NC and HFD groups).

[3] = Insulin tolerance test (ITT); assay type: in vivo, C57BL/6 male mice; details: HFD obese mice
Description: (§1) 50 C57BL/6 male mice aged about 8 weeks, are randomly assigned to five study groups (GA, GB1, GB2, GB3, GB4) of ten mice each (one cage, n=5 per condition). Mice were maintained in a pathogen free condition under a strict 12 h light/dark cycle (0600/1800 h) with 12-15 cycles/hour of air change. Mice were provided with access to respective feed and water ad libitum as per experimental conditions. Mice were housed under controlled laboratory conditions of temperature and humidity at 23±2° C. and 50±10% RH, respectively. Each study group consisted of ten animals, and treatment details of the individual study groups are given below: • Group A (GA, NC): Normal mice, maintained on normal diet (standard chow, 12% calories from fat; 23% calories from protein and 65% calories from carbohydrates) for 8 weeks, receiving neither EODF nor DHB treatment. • Group B1 (GB1): Obese mice, maintained on high fat diet (HFD, 60% calories from fat, 20% calories from protein, 20% calories from carbohydrate) for 8 weeks, receiving neither EODF nor DHB treatment. • Group B2 (GB2): Obese mice, maintained on HFD for 8 weeks, receiving only EODF and no DHB treatment. • Group B3 (GB3): Obese mice, maintained on HFD for 8 weeks, receiving only DHB treatment and no EODF. • Group B4 (GB4): Obese mice, maintained on HFD for 8 weeks, receiving DHB treatment and EODF combination. DHB was administered daily via intragastric injection (i.g.) according to a level of 70 mg/kg body weight. Mice not receiving DHB were given orally with ultrapure water. Insulin tolerance test (ITT): To measure insulin levels in blood, ITT were measured in the 6-h fasting mice (NC and HFD groups) by using a glucose analyzer. The glucose concentrations were measured by venous bleeding at 0, 15, 30, 60 and 120 min after an i.p. injection of human insulin at 0.75 U/kg. Towards the end of the final week of the study, ITT was performed for all mice (NC and HFD groups).

ADRB3 = assay: mRNA levels of ADRB3 from inguinal WAT by qRT-PCR; assay type: in vivo, C57BL/6 male mice; details: HFD obese mice
Description: as §1, with “The mRNA” for “Insulin tolerance test (ITT): To measure insulin”, “of ADRB3 protein from inguinal WAT” for “in blood, ITT”, “determined” for “measured in the 6-h fasting mice (NC and HFD groups)”, “qRT-PCR.” for “using a glucose analyzer. The glucose concentrations were measured by venous bleeding at 0, 15, 30, 60 and 120 min after an i.p. injection of human insulin at 0.75 U/kg. Towards the end of the final week of the study, ITT was performed for all mice (NC and HFD groups).”

[4] = DHB 70 mg/kg i.g. daily vs no DHB with and without EODF, FIGS. 11-14
[5] = DHB + EODF combination vs EODF only
[6] = DHB 70 mg/kg i.g. daily with or without EODF vs no DHB

Structure (SMILES): COc1ccc2c(c1OC)CN1CCc3cc4c(cc3C1=C2)OCO4 [DHB, Dihydroberberine]
- intestinal absorption rate relative to BBR [1]: five times higher
- blood glucose levels [2, 4]: greater reduction
- improving the glucose tolerance [2, 5]: greater effects
- reducing the blood glucose levels [2, 5]: greater effects
- glucose tolerance ([2]; glucose 2 g/kg orally, DHB vs no DHB with and without EODF): better
- insulin levels [3, 4]: greater reduction
- improving the insulin tolerance [3, 5]: greater effects
- reducing the insulin levels [3, 5]: greater effects
- insulin tolerance ([3]; human insulin 0.75 U/kg i.p., DHB vs no DHB with and without EODF): better
- ADRB3 abundance (mRNA, inguinal WAT) (ADRB3; [6]): increasing
- lipolysis specifically in WAT (ADRB3; [6]): upregulated
- triggering lipolysis specifically in WAT (ADRB3; [5]): greater effects
